The values below come from the Kinase Knowledgebase extract (Sharma et al. 2016).

In assay [1] the target is EGFR (UniProt P00533).
The target of assay [2] is EGFR (human) (UniProt P00533). To be noted: A431.
Assay [3] concerns the target MAPK14 (human) (UniProt Q16539). As to the kind of experiment: Inhibition of MAPK14 Kinase Activity.
Assay [4] addresses EGFR (UniProt P00533). The source holds these as a separate data set.
The target of assay [5] is EGFR (human) (UniProt P00533). To be noted: a431.
In assay [6] the target is EGFR (human) (UniProt P00533). As to conditions: a431. This is another data set of the same source.
Assay [7] has as its target EGFR (UniProt P00533). The source holds these as a separate data set.
Assay [8] deals with EGFR (human) (UniProt P00533). As to conditions: a431. This is another data set of the same source.
The target of assay [9] is EGFR (UniProt P00533). This is another data set of the same source.
For assay [10], the target named is EGFR (UniProt P00533). The source holds these as a separate data set.
Assay [11] has as its target CDK2;CDK1 (UniProt P24941). As to the kind of experiment: Cell-Based Assay.
Assay [12] addresses EGFR (human) (UniProt P00533). To be noted: mkn45, concentration not given here.
Assay [13] deals with EGFR (UniProt P00533). This is another data set of the same source.
Assay [14] concerns the target MAPK14 (UniProt Q16539). As to the kind of experiment: Inhibition of MAPK14 Kinase Activity.
For assay [15], the target named is CDK2 (human) (UniProt P24941). Kind of assay: Cell-Based Assay. To be noted: mcf-7.
In assay [16] the target is EGFR (UniProt P00533). This is another data set of the same source.
Assay [17] addresses EGFR (murine) (UniProt P00533). As to conditions: nih3t3.
Assay [18] addresses EGFR (human) (UniProt P00533). As to conditions: a431. This is another data set of the same source.
For assay [19], the target named is EGFR (human) (UniProt P00533). To be noted: a431. The source holds these as a separate data set.
The target in assay [20] is MAPK14 (human) (UniProt Q16539). Kind of assay: In vitro Inhibition of LPS-Induced TNF-alpha Release in THP-1 Cells. As to conditions: thp.1 monocytic.
Assay [21] addresses EGFR (human) (UniProt P00533). As to conditions: a431, concentration not given here.
The target in assay [22] is EGFR (UniProt P00533). This is another data set of the same source.
The target in assay [23] is MAPK14 (UniProt Q16539). Kind of assay: Inhibition of MAPK Activity.
In assay [24] the target is EGFR (UniProt P00533). The source holds these as a separate data set.
Assay [25] concerns the target EGFR (UniProt P00533). This is another data set of the same source.
Assay [26] deals with CDK2 (UniProt P24941). Kind of assay: Enzyme Assay. To be noted: concentration not given here.
The target of assay [27] is CDK2 (UniProt P24941). As to the kind of experiment: Enzyme Assay. As to conditions: concentration not given here. This is another data set of the same source.
Assay [28] deals with ROCK2 (UniProt O75116). Kind of assay: Inhibition of COS cell Derived Rho kinase (ROCKII).

SMILES strings stand for the structures.

Sequence of EGFR (P00533 whole entry, looked up): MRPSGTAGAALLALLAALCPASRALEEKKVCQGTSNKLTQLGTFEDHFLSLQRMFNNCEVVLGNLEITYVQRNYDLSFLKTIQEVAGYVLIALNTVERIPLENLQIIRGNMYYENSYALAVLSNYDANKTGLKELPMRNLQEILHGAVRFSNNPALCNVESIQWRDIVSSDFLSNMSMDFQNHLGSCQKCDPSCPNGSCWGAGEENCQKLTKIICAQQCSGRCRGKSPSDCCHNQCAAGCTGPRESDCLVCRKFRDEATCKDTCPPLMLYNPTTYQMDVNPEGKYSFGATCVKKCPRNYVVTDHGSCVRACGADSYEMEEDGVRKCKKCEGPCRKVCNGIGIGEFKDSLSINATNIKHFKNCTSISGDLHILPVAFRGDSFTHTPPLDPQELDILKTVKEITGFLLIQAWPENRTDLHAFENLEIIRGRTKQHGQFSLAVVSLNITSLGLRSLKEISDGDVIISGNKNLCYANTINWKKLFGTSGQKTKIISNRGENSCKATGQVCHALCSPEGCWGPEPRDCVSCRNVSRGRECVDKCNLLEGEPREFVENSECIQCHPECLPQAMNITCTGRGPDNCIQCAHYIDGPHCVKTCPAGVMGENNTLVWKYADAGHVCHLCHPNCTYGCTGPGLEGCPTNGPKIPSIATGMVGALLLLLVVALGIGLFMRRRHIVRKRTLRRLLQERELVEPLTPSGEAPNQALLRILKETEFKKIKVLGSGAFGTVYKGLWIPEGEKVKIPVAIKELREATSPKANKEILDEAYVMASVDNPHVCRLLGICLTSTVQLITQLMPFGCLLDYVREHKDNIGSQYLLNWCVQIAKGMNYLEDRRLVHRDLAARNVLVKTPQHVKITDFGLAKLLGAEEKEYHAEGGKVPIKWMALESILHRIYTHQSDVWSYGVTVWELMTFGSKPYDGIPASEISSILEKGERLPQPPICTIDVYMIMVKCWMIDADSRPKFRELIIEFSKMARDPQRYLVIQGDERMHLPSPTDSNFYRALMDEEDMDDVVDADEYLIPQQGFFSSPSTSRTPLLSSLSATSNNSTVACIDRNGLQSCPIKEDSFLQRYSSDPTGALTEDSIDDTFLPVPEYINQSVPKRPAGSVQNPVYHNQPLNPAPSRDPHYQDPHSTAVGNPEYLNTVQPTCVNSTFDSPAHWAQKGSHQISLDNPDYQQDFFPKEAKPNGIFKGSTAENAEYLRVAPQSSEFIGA
Sequence of EGFR (human) (P00533 whole entry, looked up): as above
Sequence of EGFR (murine) (P00533 whole entry, looked up): as above
Sequence of MAPK14 (human) (Q16539 whole entry, looked up): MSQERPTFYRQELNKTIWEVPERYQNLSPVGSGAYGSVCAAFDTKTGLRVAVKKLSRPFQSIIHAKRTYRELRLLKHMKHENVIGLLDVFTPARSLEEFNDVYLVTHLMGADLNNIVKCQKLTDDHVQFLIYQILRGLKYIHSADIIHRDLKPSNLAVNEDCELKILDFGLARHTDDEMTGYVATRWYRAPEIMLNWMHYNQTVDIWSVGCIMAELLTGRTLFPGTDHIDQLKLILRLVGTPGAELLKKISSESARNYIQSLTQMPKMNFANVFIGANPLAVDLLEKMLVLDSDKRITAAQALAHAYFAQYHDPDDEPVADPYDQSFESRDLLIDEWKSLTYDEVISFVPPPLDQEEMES
Sequence of MAPK14 (Q16539 whole entry, looked up): as above

In general, IC50 refers to the concentration needed to halve the response being measured. A low value points to greater potency. Consider `Cc1cc(C)c(N(C)C)c(C)c1Cc1nc(-c2ccncc2)c(-c2ccc(Cl)cc2)[nH]1`, for which the IC50 in assay [1] came to 0.05 µM.

Consider `Cc1nnc(-c2ccc3ncnc(Nc4ccc(OCc5cc(F)cc(F)c5)cc4)c3c2)o1`, for which the 50% inhibitory concentration (IC50) in assay [2] worked out at 0.009 µM.

`O=C(CCCNc1ncc(C(F)(F)F)cc1Cl)NNS(=O)(=O)c1ccc(CNC(=O)c2ccc(Cl)cc2)s1`: the half-inhibitory concentration (IC50) in assay [3] and in [4] was greater than 10 µM each time.

`N#Cc1cnc2ccc(NC(=O)C#CCN3CCSCC3)cc2c1Nc1cccc(Br)c1`: in assay [5], the IC50 was determined as 0.1 µM.

One may read the Ki as a measure of affinity in units of concentration, obtained from inhibition or displacement. Higher therefore signals weaker binding. In the case of `N#C/C(=C\c1ccc(O)c(O)c1)C(N)=O`, in assay [6], the inhibition constant (Ki) was determined as 3.5 µM. The same compound displayed an IC50 in assay [7] greater than 1000 µM.

For the compound `Brc1cccc(Nc2ncnc3cc4[nH]cc(CNN5CCOCC5)c4cc23)c1`, the half-maximal inhibitory concentration (IC50) came to 0.0096 µM in assay [8] and 0.0048 µM in assay [9].

In [10], `Cc1cc(C(=O)N2CCOCC2)[nH]c1/C=C1/C(=O)Nc2ncnc(Nc3cccc4c3CCC4)c21` returned an IC50 of 0.377 µM.

Broadly, the GI50 is the concentration at which growth is held to half of that of the control. Higher therefore signals less potent growth inhibition. As to `Nc1cc(OCC2CCCCC2)nc(N)n1`, in [11], the GI50 is greater than 100 µM.

By cell viability is commonly meant a read-out of living cells in per cent, often relative to untreated cells. Higher therefore signals less harm to the cells. Turning to `Nc1c2ccccc2nc2c1ccc1ncccc12`, in assay [12], the cell viability was greater than 90%.

With `C=CC(=O)Nc1cc2c(Nc3cccc(Br)c3)c(C#N)cnc2cc1OC`, the IC50 in assay [13] was 0.81 µM.

For `O=CN/C=C/c1cc(O)ccc1O`, the half-inhibitory concentration (IC50) in assay [7] was determined as 5 µM.

Regarding `COCCNS(=O)(=O)c1ccc(Nc2nccc(-c3cnc4cccnn34)n2)cc1`, the IC50 was greater than 10 µM in assay [14], 0.39 µM in assay [15] and greater than 10 µM in [16].

As for `NS(=O)(=O)c1ccc2c(c1)/C(=C/C1=CC3=C(CCCC3)C1)C(=O)N2`, the half-maximal inhibitory concentration (IC50) in assay [17] is greater than 100 µM.

`COc1cc2ncnc(N[C@H](COC(C)=O)c3ccccc3)c2cc1OC`: the IC50 is 5.3 µM in assay [18] and 1.31 µM in [19].

As to `Nc1c2c(nc3ccccc13)-c1cccnc1CC2`, the cell viability in assay [12] is greater than 90%.

As for `O=C(Nc1ccc2[nH]cc(CCc3ccncc3)c2c1)c1cc(F)cc(N2CCOCC2)c1`, the concentration for half-maximal inhibition (IC50) in assay [20] is 0.53 µM.

As for `C=CC(=O)Nc1ccc2ncnc(Nc3ccc(Oc4ccccc4)cc3)c2c1`, the activity in assay [21] was determined as 0%.

As to `Nc1ccc(-c2cc(Nc3ccc(S(N)(=O)=O)cc3)[nH]n2)cc1`, in assay [22], the 50% inhibitory concentration (IC50) was greater than 10 µM.

Turning to `CN(C)S(=O)(=O)c1ccc2c(c1)/C(=C/C1=CC3=C(CCCC3)C1)C(=O)N2`, the IC50 in assay [17] was greater than 100 µM.

Take `Cn1cnc2c(NCc3ccccc3)nc(NCCO)nc21`: the IC50 in assay [23] turned out to be 30 µM.

Compound `N#C/C(=C\c1ccc(O)c(O)c1)C(=O)NCCCCc1ccccc1` had an IC50 in [24] of 5 µM.

Turning to `COc1cc2ncnc(N[C@H](CO)c3ccccc3)c2cc1OC`, the IC50 in assay [18] is greater than 1.56 µM; in assay [19] it was 0.8 µM.

In [2], `c1ccc(COc2ccc(Nc3ncnc4ccc(-c5ccc(CNCc6cccnc6)o5)cc34)cc2)cc1` came in with an IC50 of 0.2 µM.

`N#CC(C#N)=Cc1cc(O)c(O)c(O)c1` showed an inhibitory constant (Ki) in assay [6] of 1 µM. Further, the half-maximal inhibitory concentration (IC50) in assay [25] came to 50 µM.

Take `C[S+]([O-])c1ccc(-c2nc(-c3ccc(F)cc3)c(-c3ccncc3)[nH]2)cc1` (stereo not drawn): the activity was 112% in assay [26] and 91% in [27].

`N#C/C(=C\c1ccc(O)c(O)c1)C(=O)NCCCc1ccccc1`: the half-inhibitory concentration (IC50) in assay [24] was found to be 0.7 µM.

As for `Cn1cnc2c(OCC3CCCCC3)nc(N)nc21`, in [11], the GI50 was greater than 100 µM.

`Brc1cccc(Nc2ncnc3cc4c(ccn4CCCN4CCOCC4)cc23)c1` displayed an IC50 in [8] of 0.077 µM.

The compound `N=C(N)NC[C@H]1CC[C@H](C(=O)NC2=CC=NC3NN=CC23)CC1` (stereo partly drawn) returned an IC50 in [28] of 0.47 µM.
